Measurements from ChEMBL document CHEMBL1156989, “Discovery of novel small molecule orally bioavailable C-X-C chemokine receptor 4 antagonists that are potent inhibitors of T-tropic (X4) HIV-1 replication” (J Med Chem, 2010).

What was measured:
[1] = Cytotoxicity against human MT4 cells expressing CD4 and CXCR4 assessed as cell viability; settings: MT4 cells expressing CD4 and CXCR4
[2] = test system: Human immunodeficiency virus 1; assay: Antiviral activity against HIV1 3B infected in human MT-4 cells assessed as inhibition of virus-induced cytopathicity; settings: Human immunodeficiency virus 1, 3B
[3] = biological target: C-X-C chemokine receptor type 4 (Homo sapiens, UniProt P61073); assay: Inhibition of anti-CXCR4 12G5 monoclonal antibody to CXCR4 in human SUP-T1 cells pretreated for 30 mins by flow cytometry; type: cell-based
[4] = test system: Human immunodeficiency virus 1; assay: Ratio of IC90 for HIV1 NL4.3 infected in human PBMC to IC90 for HIV1 NL4.3 infected in human MT4 cells; type: functional
[5] = test system: Human immunodeficiency virus 1; assay: Ratio of IC50 for HIV1 NL4.3 infected in human PBMC to IC50 for HIV1 NL4.3 infected in human MT4 cells; type: functional
[6] = test system: Human immunodeficiency virus 1; assay: Antiviral activity against HIV1 NL4.3 infected in human PBMC assessed as inhibition of virus-induced cytopathicity; type: functional, organism-based; settings: Human immunodeficiency virus 1, NL4.3
[7] = test system: Human immunodeficiency virus 1; assay: Antiviral activity against HIV1 NL4.3 infected in human MT4 cells expressing CD4 and CXCR4 assessed as inhibition of virus-induced cytopathicity; type: functional, organism-based; settings: Human immunodeficiency virus 1, NL4.3, MT4
Rattus norvegicus [8] = assay: Half life in rat at 10 mg/kg, iv; type: ADME, organism-based; set-up: dose 10 mg/kg, route intravenous; settings: in vivo
[9] = biological target: T1, C-C chemokine receptor type 1 (Homo sapiens, UniProt P32246); assay: Displacement of radiolabeled MIP1alpha from CCR1 receptor
T1 sequence (P32246 whole entry): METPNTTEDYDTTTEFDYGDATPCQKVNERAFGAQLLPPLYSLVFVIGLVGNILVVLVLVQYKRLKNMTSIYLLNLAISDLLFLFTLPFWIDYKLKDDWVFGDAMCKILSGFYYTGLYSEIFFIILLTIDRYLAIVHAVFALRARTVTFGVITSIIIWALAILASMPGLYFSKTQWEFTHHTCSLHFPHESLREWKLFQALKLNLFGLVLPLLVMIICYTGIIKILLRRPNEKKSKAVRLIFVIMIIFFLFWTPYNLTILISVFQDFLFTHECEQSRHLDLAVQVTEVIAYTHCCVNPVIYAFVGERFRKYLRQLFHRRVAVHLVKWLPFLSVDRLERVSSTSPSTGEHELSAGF

Canis familiaris [10] = assay: Half life in dog at 5 mg/kg, iv; type: ADME, organism-based, Canis lupus familiaris; set-up: dose 5 mg/kg, route intravenous; settings: in vivo
[11] = test system: Human immunodeficiency virus 1; assay: Antiviral activity against HIV1 3B infected in human MT4 cells assessed as inhibition of virus-induced cytopathicity in presence of 10% human serum; type: functional, organism-based; settings: Human immunodeficiency virus 1, 3B
[12] = Cmax in dog; type: ADME, organism-based, Canis lupus familiaris; settings: in vivo
[13] = biological target: T2, C-X-C chemokine receptor type 2 (Homo sapiens, UniProt P25025); assay: Displacement of radiolabeled IL8 from CXCR2 receptor
T2 sequence (P25025 whole entry): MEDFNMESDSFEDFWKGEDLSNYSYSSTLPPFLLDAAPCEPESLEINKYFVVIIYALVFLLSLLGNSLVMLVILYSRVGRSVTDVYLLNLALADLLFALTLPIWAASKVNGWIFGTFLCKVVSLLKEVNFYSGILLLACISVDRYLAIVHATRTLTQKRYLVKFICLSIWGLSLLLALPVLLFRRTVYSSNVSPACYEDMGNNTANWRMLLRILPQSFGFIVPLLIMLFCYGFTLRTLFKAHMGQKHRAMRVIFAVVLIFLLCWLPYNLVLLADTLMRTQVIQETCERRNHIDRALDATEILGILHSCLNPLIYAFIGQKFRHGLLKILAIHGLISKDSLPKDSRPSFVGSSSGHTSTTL

Rattus norvegicus [14] = assay: Volume of distribution in rat at 10 mg/kg, iv; type: ADME, organism-based; set-up: dose 10 mg/kg, route intravenous; settings: in vivo
[15] = biological target: C-C chemokine receptor type 5 (Homo sapiens, UniProt P51681); assay: Displacement of radiolabeled MIP1beta from CCR5 receptor
[16] = biological target: C-C chemokine receptor type 2 (Homo sapiens, UniProt P41597); assay: Displacement of radiolabeled MCP1 from CCR2b receptor
[17] = biological target: T3, C-X-C chemokine receptor type 1 (Homo sapiens, UniProt P25024); assay: Displacement of radiolabeled IL8 from CXCR1 receptor
T3 sequence (P25024 whole entry): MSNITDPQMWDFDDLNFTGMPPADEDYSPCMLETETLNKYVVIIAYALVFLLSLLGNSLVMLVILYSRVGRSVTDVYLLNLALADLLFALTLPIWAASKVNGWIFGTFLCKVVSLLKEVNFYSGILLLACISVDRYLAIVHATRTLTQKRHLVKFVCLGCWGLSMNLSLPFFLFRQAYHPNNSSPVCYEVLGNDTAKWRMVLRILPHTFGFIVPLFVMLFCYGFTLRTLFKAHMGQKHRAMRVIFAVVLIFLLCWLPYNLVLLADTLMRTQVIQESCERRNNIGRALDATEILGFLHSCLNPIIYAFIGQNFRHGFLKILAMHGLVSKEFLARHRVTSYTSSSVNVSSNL

[18] = biological target: T4, C-C chemokine receptor type 4 (Homo sapiens, UniProt P51679); assay: Displacement of radiolabeled TARC from CCR4 receptor
T4 sequence (P51679 whole entry): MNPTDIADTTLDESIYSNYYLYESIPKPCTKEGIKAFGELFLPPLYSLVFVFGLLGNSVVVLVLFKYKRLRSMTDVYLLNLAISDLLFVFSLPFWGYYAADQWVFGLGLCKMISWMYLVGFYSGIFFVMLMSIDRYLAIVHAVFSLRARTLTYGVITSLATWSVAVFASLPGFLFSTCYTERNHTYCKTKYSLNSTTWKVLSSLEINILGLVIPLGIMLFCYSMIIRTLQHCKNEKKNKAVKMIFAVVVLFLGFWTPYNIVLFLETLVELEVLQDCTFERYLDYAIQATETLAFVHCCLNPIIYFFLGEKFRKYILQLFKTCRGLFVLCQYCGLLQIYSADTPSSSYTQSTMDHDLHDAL

[19] = Cmax in rat; type: ADME, organism-based; settings: in vivo
[20] = test system: Human immunodeficiency virus 1; assay: Antiviral activity against HIV1 NL4.3 infected in human MT4 cells assessed as inhibition of virus-induced cytopathicity in presence of 10% human serum; type: functional, organism-based; settings: Human immunodeficiency virus 1, NL4.3, MT4
[21] = Oral bioavailability in rat at 40 mg/kg; type: ADME, organism-based; settings: in vivo
Canis familiaris [22] = assay: Volume of distribution in dog at 5 mg/kg, iv; type: ADME, organism-based, Canis lupus familiaris; set-up: dose 5 mg/kg, route intravenous; settings: in vivo
[23] = Oral bioavailability in dog at 25 mg/kg; type: ADME, organism-based, Canis lupus familiaris; settings: in vivo
Rattus norvegicus [24] = assay: Volume of distribution in rat at 5 mg/kg, iv; type: ADME, organism-based; set-up: dose 5 mg/kg, route intravenous; settings: in vivo
[25] = Oral bioavailability in dog at 6 mg/kg; type: ADME, organism-based, Canis lupus familiaris; settings: in vivo
Rattus norvegicus [26] = assay: Half life in rat at 5 mg/kg, iv; type: ADME, organism-based; set-up: dose 5 mg/kg, route intravenous; settings: in vivo
[27] = Oral bioavailability in rat at 100 mg/kg; type: ADME, organism-based; settings: in vivo

Chain of C-C chemokine receptor type 2 (P41597 whole entry): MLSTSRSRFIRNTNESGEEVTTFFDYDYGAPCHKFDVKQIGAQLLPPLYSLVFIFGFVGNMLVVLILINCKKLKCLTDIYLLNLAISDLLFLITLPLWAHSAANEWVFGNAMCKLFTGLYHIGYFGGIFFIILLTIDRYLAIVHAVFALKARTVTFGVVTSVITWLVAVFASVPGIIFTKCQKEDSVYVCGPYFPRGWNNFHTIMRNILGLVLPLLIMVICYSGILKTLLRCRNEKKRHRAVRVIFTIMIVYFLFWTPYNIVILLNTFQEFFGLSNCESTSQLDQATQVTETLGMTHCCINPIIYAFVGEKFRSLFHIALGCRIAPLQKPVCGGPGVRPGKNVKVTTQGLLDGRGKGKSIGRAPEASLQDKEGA
Chain of C-X-C chemokine receptor type 4 (P61073 whole entry): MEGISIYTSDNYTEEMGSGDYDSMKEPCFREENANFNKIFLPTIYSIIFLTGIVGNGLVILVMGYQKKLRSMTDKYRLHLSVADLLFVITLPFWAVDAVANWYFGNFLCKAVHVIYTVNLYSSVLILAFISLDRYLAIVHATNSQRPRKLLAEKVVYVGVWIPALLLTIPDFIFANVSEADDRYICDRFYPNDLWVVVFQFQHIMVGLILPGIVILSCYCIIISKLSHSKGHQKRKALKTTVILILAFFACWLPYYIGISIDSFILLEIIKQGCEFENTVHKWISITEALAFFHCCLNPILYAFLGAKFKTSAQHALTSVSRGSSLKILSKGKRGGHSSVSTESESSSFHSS
Chain of C-C chemokine receptor type 5 (P51681 whole entry): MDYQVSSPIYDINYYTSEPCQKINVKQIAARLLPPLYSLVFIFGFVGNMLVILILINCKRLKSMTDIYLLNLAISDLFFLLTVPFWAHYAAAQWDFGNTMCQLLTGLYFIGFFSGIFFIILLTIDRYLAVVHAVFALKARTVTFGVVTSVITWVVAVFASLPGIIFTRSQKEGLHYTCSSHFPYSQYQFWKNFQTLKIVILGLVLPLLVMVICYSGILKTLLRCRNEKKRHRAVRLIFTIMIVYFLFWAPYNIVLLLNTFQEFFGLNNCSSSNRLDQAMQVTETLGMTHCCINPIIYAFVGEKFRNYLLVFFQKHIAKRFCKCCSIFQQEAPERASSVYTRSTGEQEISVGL

c1ccc(CNCc2ccc(CN(Cc3nc4ccccc4[nH]3)C3CCCc4cccnc43)cc2)nc1 (stereo not drawn)
CC50 [1]: 23 µM
IC50 [2]: 0.06 µM
IC50 [3]: 0.25 µM
Ratio [4]: 4
Ratio IC50 [5]: 5
IC50 [6]: 0.277 µM
IC50 [7]: 0.06 µM

c1ccc(CNCc2ccc(CN(Cc3nc4ccccc4[nH]3)[C@H]3CCCc4cccnc43)cc2)nc1
t1/2 (Rattus norvegicus [8]): 2.9 h
IC90 [2]: 0.108 µM
IC50 [9]: > 10 µM
t1/2 (Canis familiaris [10]): 5.7 h
IC50 [11]: 0.081 µM
Cmax [12]: 0.8 µg/mL
IC50 [13]: > 10 µM
Vd (Rattus norvegicus [14]): 5.5 L/kg
IC50 [15]: > 10 µM
IC50 [16]: > 10 µM
IC50 [3]: 0.12 µM
IC50 [17]: > 10 µM
IC50 [18]: > 10 µM
Cmax [19]: 4.5 µg/mL
IC50 [20]: 0.069 µM
bioavailability [21]: 48%
Vd (Canis familiaris [22]): 17.5 L/kg
IC90 [6]: 0.559 µM
bioavailability [23]: 55%
IC50 [7]: 0.03 µM

NCCCCN(Cc1nc2ccccc2[nH]1)[C@H]1CCCc2cccnc21 [MAVORIXAFOR]
IC50 [9]: > 10 µM
Cmax [12]: 1.7 µg/mL
IC50 [13]: > 10 µM
Vd (Rattus norvegicus [24]): 14.3 L/kg
IC50 [15]: > 10 µM
IC50 [16]: > 10 µM
IC50 [17]: > 10 µM
bioavailability [25]: 80%
IC50 [18]: > 10 µM
t1/2 (Rattus norvegicus [26]): 3.5 h
Cmax [19]: 1.2 µg/mL
IC50 [20]: 0.016 µM
bioavailability [27]: 22%
IC50 [6]: 0.009 µM
IC90 [6]: 0.026 µM
IC50 [7]: 0.002 µM
